According to patent US20120165403A1, “METHODS OF INHIBITING THE ACTIVITY OF HSP90 AND/OR ARYL HYDROCARBON RECEPTOR” (UNIVERSITY OF ROCHESTER, priority 2004, published 2012):

Biological target: T1, AhR (Mus musculus, UniProt P30561)
T1 construct: made in house; host or cells: coupled transcription/translation in rabbit reticulocyte lysate (TNT, Promega), 35S-labelled
T1 sequence (P30561 10-848): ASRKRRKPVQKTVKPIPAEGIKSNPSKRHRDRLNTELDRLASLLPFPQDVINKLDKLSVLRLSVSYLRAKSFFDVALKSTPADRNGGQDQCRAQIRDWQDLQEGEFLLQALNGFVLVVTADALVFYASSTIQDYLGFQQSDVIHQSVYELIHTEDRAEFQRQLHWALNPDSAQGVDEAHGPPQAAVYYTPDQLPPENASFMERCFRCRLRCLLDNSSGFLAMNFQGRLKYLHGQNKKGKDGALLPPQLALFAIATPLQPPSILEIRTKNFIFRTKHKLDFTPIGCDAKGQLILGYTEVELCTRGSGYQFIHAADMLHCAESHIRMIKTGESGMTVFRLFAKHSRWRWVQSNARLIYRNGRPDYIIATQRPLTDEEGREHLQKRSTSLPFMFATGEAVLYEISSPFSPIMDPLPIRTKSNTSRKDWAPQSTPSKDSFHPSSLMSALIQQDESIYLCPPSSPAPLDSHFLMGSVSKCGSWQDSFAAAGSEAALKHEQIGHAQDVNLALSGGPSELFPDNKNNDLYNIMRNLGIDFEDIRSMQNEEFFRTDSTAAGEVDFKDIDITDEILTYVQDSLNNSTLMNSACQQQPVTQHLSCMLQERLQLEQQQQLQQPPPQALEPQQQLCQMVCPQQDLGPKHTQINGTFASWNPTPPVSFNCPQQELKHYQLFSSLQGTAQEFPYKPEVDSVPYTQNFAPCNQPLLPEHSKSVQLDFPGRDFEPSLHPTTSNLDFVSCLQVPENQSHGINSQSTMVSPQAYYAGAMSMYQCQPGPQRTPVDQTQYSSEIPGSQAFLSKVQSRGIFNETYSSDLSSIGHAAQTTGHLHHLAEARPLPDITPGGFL
Assay: Affinity chromatography on EGCG-conjugated Sepharose, in vitro translated AhR
Format: binding, murine
Settings: 35S-AhR in vitro translated in RRL
Excerpt: Murine AhR and ARNT cDNA (obtained from J. Whitlock and O. Hankinson, respectively) were inserted into pcDNA3 (Invitrogen, Carlsbad, Calif.). Chicken hsp90 constructs (FIG. 5), c90711hsp (wild-type), c90G94D (wild-type point mutant gly94→Asp (Grenert et al., J. Biol. Chem. 272:23843-23850 (1997), which is hereby incorporated by reference in its entirety), c90D92A (wild-type point mutant Asp92→Ala (Sullivan et al., J. Biol. Chem. 268:20373-20379 (1993), which is hereby incorporated by reference in its entirety), c90N221 (wild-type truncation mutant encoding a.a. 221-728 (Sullivan et al., J. Biol. Chem. 268:20373-20379 (1993), which is hereby incorporated by reference in its entirety)), c90N303 (a.a. 303-728) and c90N538 (a.a. 538-728) were kind gifts from Dr. D. Toft (Rochester, Minn.). The C-terminal truncation mutant c900507 (a.a. 1-221) was obtained from Dr. L. Neckers (Rockville, Md.) (Grenert et al., J. Biol. Chem. 272:23843-23850 (1997); Marcu et al., J. Biol. Chem. 275:37181-37186 (2000), which are hereby incorporated by reference in their entirety). Human p23 cDNA was excised from pQE80-p23 (obtained from W. Chan Stockton, Calif.) by sequential digests using the restriction enzymes Sad (3′-end) and BamHI (5′-end) and inserted into the similarly digested pET28a (Novagen, Madison, Wis.). […]

Structure (SMILES): O=C(O[C@@H]1Cc2c(O)cc(O)cc2O[C@@H]1c1cc(O)c(O)c(O)c1)c1cc(O)c(O)c(O)c1 [EGCG, epigallocatechin gallate]
- binding of AhR to immobilized EGCG: not able to bind immobilized EGCG
